Reference: ChEMBL document CHEMBL1149066, “Esperamicin P, the tetrasulfide analog of esperamicin A1” (J Nat Prod, 1994)
≈ marks a conversion by molar mass, not a printed value. Calls of active or inactive are those of the source. The calls are words filed in the database; no cut-off is given here.

Experiments:
P388 [1] = assay: Antitumor activity against mouse P388 cells in iv dosed in vivo system; assay type: functional, organism-based
A549 [2] = assay: Cytotoxicity against human A549 cells; assay type: functional, cell-based
B16 = assay: Cytotoxicity against mouse B16-PRIM cells; assay type: functional, cell-based
Enterococcus faecalis [3] = assay: Antimicrobial activity against Enterococcus faecalis A25707 by serial twofold dilution method; assay type: functional
Enterococcus faecalis [4] = assay: Antimicrobial activity against Enterococcus faecalis A25708 by serial twofold dilution method; assay type: functional
Escherichia coli [5] = assay: Antimicrobial activity against Escherichia coli A15119 by serial twofold dilution method; assay type: functional
Enterococcus faecalis [6] = assay: Antimicrobial activity against Enterococcus faecalis A20688 by serial twofold dilution method; assay type: functional
[7] = Cytotoxicity against human HCT/VP35 cells; assay type: functional, cell-based
A549 [8] = assay: Cytotoxicity against […]-resistant human A549 cells; assay type: functional, cell-based
Proteus vulgaris = assay: Antimicrobial activity against Proteus vulgaris A21559 by serial twofold dilution method; assay type: functional
Klebsiella pneumoniae [9] = assay: Antimicrobial activity against Klebsiella pneumoniae A9664 by serial twofold dilution method; assay type: functional
Escherichia coli [10] = assay: Antimicrobial activity against Escherichia coli A20697 by serial twofold dilution method; assay type: functional
Staphylococcus aureus [11] = assay: Antimicrobial activity against Staphylococcus aureus A20698 by serial twofold dilution method; assay type: functional
HCT-116 = assay: Cytotoxicity against human HCT116 cells; assay type: functional, cell-based
Klebsiella pneumoniae [12] = assay: Antimicrobial activity against Klebsiella pneumoniae A20468 by serial twofold dilution method; assay type: functional
Escherichia coli [13] = assay: Antimicrobial activity against Escherichia coli A9751 by serial twofold dilution method; assay type: functional
Pseudomonas aeruginosa [14] = assay: Antimicrobial activity against Pseudomonas aeruginosa A20235 by serial twofold dilution method; assay type: functional
Staphylococcus aureus [15] = assay: Antimicrobial activity against Staphylococcus aureus A24407 by serial twofold dilution method; assay type: functional
Staphylococcus aureus [16] = assay: Antimicrobial activity against Staphylococcus aureus A9537 by serial twofold dilution method; assay type: functional
P388 [17] = assay: In vivo antitumor activity against mouse P388 cells at 1 to 3 ug/kg, ip; assay type: functional
Pseudomonas aeruginosa [18] = assay: Antimicrobial activity against Pseudomonas aeruginosa A9843 by serial twofold dilution method; assay type: functional

With `C=C(OC)C(=O)Nc1cc(OC)c(OC)cc1C(=O)O[C@H]1C[C@H](O[C@@H]2C(=O)C(NC(=O)OC)=C3/C(=C\CSSSC)[C@]2(O)C#C/C=C\C#C[C@@H]3O[C@@H]2O[C@H](C)[C@@H](NO[C@H]3C[C@H](O)[C@H](SC)[C@@H](C)O3)[C@H](O)[C@H]2O[C@H]2C[C@H](OC)[C@@H](NC(C)C)CO2)O[C@@H](C)[C@H]1O` the Activity (P388 [1]) was “Active”.
For `C=C(OC)C(=O)Nc1cc(OC)c(OC)cc1C(=O)O[C@H]1C[C@H](O[C@@H]2C(=O)C(NC(=O)OC)=C3/C(=C\CSSSSC)[C@]2(O)C#C/C=C\C#C[C@@H]3O[C@@H]2O[C@H](C)[C@@H](NO[C@H]3C[C@H](O)[C@H](SC)[C@@H](C)O3)[C@H](O)[C@H]2O[C@H]2C[C@H](OC)[C@@H](NC(C)C)CO2)O[C@@H](C)[C@H]1O` [ESPERAMICIN P], the IC50 (A549 [2]) was 0.01 µg/mL (≈ 7.37 nM), the IC50 (B16) was > 0.002 µg/mL and the MIC (Enterococcus faecalis [3]) was 0.002 µg/mL (≈ 1.47 nM). The MIC (Enterococcus faecalis [4]) was 0.002 µg/mL (≈ 1.47 nM), the MIC (Escherichia coli [5]) was 0.25 µg/mL (≈ 184 nM) and the Activity (P388 [1]) was “inactive”. For the same compound, the MIC (Enterococcus faecalis [6]) was 0.002 µg/mL (≈ 1.47 nM), the IC50 [7] was < 0.002 µg/mL and the IC50 (A549 [8]) was 0.01 µg/mL (≈ 7.37 nM). The MIC (Proteus vulgaris) was 0.13 µg/mL (≈ 95.8 nM), the MIC (Klebsiella pneumoniae [9]) was 1 µg/mL (≈ 737 nM) and the MIC (Escherichia coli [10]) was 0.25 µg/mL (≈ 184 nM). The MIC (Staphylococcus aureus [11]) was 0.001 µg/mL (≈ 0.737 nM), the IC50 (HCT-116) was < 0.002 µg/mL and the MIC (Klebsiella pneumoniae [12]) was 1 µg/mL (≈ 737 nM). For the same compound, the MIC (Escherichia coli [13]) was 0.016 µg/mL (≈ 11.8 nM), the MIC (Pseudomonas aeruginosa [14]) was 0.13 µg/mL (≈ 95.8 nM) and the MIC (Staphylococcus aureus [15]) was 0.001 µg/mL (≈ 0.737 nM). The MIC (Staphylococcus aureus [16]) was 0.001 µg/mL (≈ 0.737 nM), the T/C (P388 [17]) was 145% and the MIC (Pseudomonas aeruginosa [18]) was 0.25 µg/mL (≈ 184 nM).
